Assay results reported in the NIST ThermoML archive (doi:10.1021/acs.jced.9b00074).

Test: xn = mol fraction of the nth substance listed
Conditions: 100 kPa, Liquid; for viscosity: Falling or rolling sphere viscometry; for mass density: Vibrating tube method

OC1CCCC1 [cyclopentanol] + C1C[C@@H]2[C@H]3CC[C@H](C3)[C@@H]2C1
Conditions	mass density [kg/m3]	viscosity [mPa·s]
293.15 K, x1 = 0.101	935.59	3.091
293.15 K, x1 = 0.201	935.84	3.26
293.15 K, x1 = 0.296	936.28	3.471
293.15 K, x1 = 0.3962	937.08	3.794
293.15 K, x1 = 0.5016	938.1	4.304
293.15 K, x1 = 0.6017	939.39	5.009
293.15 K, x1 = 0.7011	940.96	5.976
293.15 K, x1 = 0.7968	942.64	7.24
293.15 K, x1 = 0.9005	944.8	9.125
298.15 K, x1 = 0.101	931.59	2.829
298.15 K, x1 = 0.201	931.81	2.917
298.15 K, x1 = 0.296	932.23	3.093
298.15 K, x1 = 0.3962	932.99	3.355
298.15 K, x1 = 0.5016	934	3.762
298.15 K, x1 = 0.6017	935.27	4.32
298.15 K, x1 = 0.7011	936.86	5.083
298.15 K, x1 = 0.7968	938.57	6.076
298.15 K, x1 = 0.9005	940.78	7.555
303.15 K, x1 = 0.101	927.56	2.564
303.15 K, x1 = 0.201	927.75	2.623
303.15 K, x1 = 0.296	928.14	2.774
303.15 K, x1 = 0.3962	928.88	2.987
303.15 K, x1 = 0.5016	929.87	3.316
303.15 K, x1 = 0.6017	931.12	3.761
303.15 K, x1 = 0.7011	932.71	4.367
303.15 K, x1 = 0.7968	934.45	5.154
303.15 K, x1 = 0.9005	936.7	6.316
308.15 K, x1 = 0.101	923.52	2.329
308.15 K, x1 = 0.201	923.67	2.376
308.15 K, x1 = 0.296	924.03	2.499
308.15 K, x1 = 0.3962	924.74	2.674
308.15 K, x1 = 0.5016	925.71	2.941
308.15 K, x1 = 0.6017	926.94	3.298
308.15 K, x1 = 0.7011	928.53	3.78
308.15 K, x1 = 0.7968	930.28	4.407
308.15 K, x1 = 0.9005	932.57	5.324
313.15 K, x1 = 0.101	919.47	2.122
313.15 K, x1 = 0.201	919.57	2.156
313.15 K, x1 = 0.296	919.9	2.261
313.15 K, x1 = 0.3962	920.57	2.404
313.15 K, x1 = 0.5016	921.52	2.62
313.15 K, x1 = 0.6017	922.73	2.908
313.15 K, x1 = 0.7011	924.31	3.296
313.15 K, x1 = 0.7968	926.07	3.796
313.15 K, x1 = 0.9005	928.4	4.527
318.15 K, x1 = 0.101	915.4	1.94
318.15 K, x1 = 0.201	915.45	1.965
318.15 K, x1 = 0.296	915.74	2.053
318.15 K, x1 = 0.3962	916.37	2.171
318.15 K, x1 = 0.5016	917.29	2.348
318.15 K, x1 = 0.6017	918.48	2.58
318.15 K, x1 = 0.7011	920.05	2.893
318.15 K, x1 = 0.7968	921.82	3.293
318.15 K, x1 = 0.9005	924.18	3.878
323.15 K, x1 = 0.101	911.31	1.779
323.15 K, x1 = 0.201	911.3	1.799
323.15 K, x1 = 0.296	911.55	1.871
323.15 K, x1 = 0.3962	912.15	1.968
323.15 K, x1 = 0.5016	913.03	2.112
323.15 K, x1 = 0.6017	914.19	2.302
323.15 K, x1 = 0.7011	915.74	2.554
323.15 K, x1 = 0.7968	917.51	2.876
323.15 K, x1 = 0.9005	919.9	3.346
328.15 K, x1 = 0.101	907.2	1.639
328.15 K, x1 = 0.201	907.12	1.65
328.15 K, x1 = 0.296	907.33	1.711
328.15 K, x1 = 0.3962	907.88	1.791
328.15 K, x1 = 0.5016	908.73	1.908
328.15 K, x1 = 0.6017	909.87	2.063
328.15 K, x1 = 0.7011	911.39	2.268
328.15 K, x1 = 0.7968	913.16	2.527
328.15 K, x1 = 0.9005	915.56	2.906
333.15 K, x1 = 0.101	903.08	1.514
333.15 K, x1 = 0.201	902.92	1.521
333.15 K, x1 = 0.296	903.08	1.569
333.15 K, x1 = 0.3962	903.59	1.635
333.15 K, x1 = 0.5016	904.4	1.732
333.15 K, x1 = 0.6017	905.5	1.858
333.15 K, x1 = 0.7011	907	2.023
333.15 K, x1 = 0.7968	908.75	2.233
333.15 K, x1 = 0.9005	911.17	2.54
